Data reported in patent publication US20180306790A1, “USE OF EB1 AS A BIOMARKER OF DRUG RESPONSE” (BASILEA PHARMACEUTICA INTERNATIONAL AG, priority 2015, published 2018).
pEC50: −log10 of the molar value. Read-outs that look alike come from different tables or passages of the source.

What was measured:
GBM6 CSCs [1] = test: Cytotoxic assay (sulforhodamine B growth inhibition, 72 hours); type: cell-based, human; conditions: at least three independent experiments, read-out: EC50 +/− SEM, cytotoxic activity
Method: (§1) Cells (5000 cells/well) were seeded in previously poly-DL-ornithine (Sigma-Aldrich) coated 96-well plates (10 μg/mL) and allowed to grow for 24 hours before treatment with BAL27862. Growth inhibition of cells was measured after 72 hours by using a sulforhodamine B assay kit (Sigma-Aldrich). Cell density was analyzed using a microplate reader (Labsystems Multiscan, Thermo, Villebon sur Yvette, France) and analysis of EC50 were performed with GraphPad 5.0 statistical software (GraphPad Software, La Jolla, USA). At least three independent experiments were performed.

GBM9 CSCs [2] = test: as above; type: cell-based, human; conditions: at least three independent experiments, read-out: EC50 +/− SEM, cytotoxic activity
Method: as §1

GBM6 CSCs [3] = test: Transwell cell migration assay; type: cell-based, human
Method: (§2) Stem cells (50′000) were poured on the upper side of a transwell migration chamber ([…] filter, BD) in DMEM. The lower side of the chamber was filled with DMEM, supplemented with 10% FCS. Cells were allowed to transmigrate for 5 hours and then chambers were removed. […] After washing and drying, pictures of six fields per condition were imaged at a magnification of 10× and transmigrated cells were counted.

GBM9 CSCs [4] = test: Transwell cell migration assay; type: cell-based, human; conditions: 5 hours transmigration
Method: as §2

GBM6 CSCs [5] = test: Clonogenic survival assay; type: cell-based, human; conditions: 6 and 10 nM, 72 hours
Method: Cells were grown in previously poly-DL-ornithine (Sigma-Aldrich) coated 6-well plates (1000 cells/well) and after treatment for 72 hours with BAL27862, incubated for up to 5 days. Colonies were stained with 1% Crystal-violet solution in 20% methanol (Sigma-Aldrich). The colonies with more than 50 cells were counted. At least three independent experiments were performed.

GBM6 CSCs [6] = test: FACS analysis of A2B5 positive GBM6 brain tumor CSCs in vitro; type: cell-based, human; conditions: 6 nM, 72 hours
Method: GBM6 cells were seeded at 300′000 cells/well into poly-DL-ornithine-coated 6-well plates (10 μg/mL)(Sigma-Aldrich), in stem cell-permissive medium (5 mg/mL Insulin, 0.1 mM Putrescine, […] Transferrin, 2.10^−8M Progesterone, 50 mg/mL Penicillin-Streptomycin and growth factors including 10 ng/mL basic fibroblast growth factor (bFGF), 20 ng/mL epidermal growth factor (EGF) and B27). One day later, cells were treated with BAL27862 for 72 hours. Then, cells were trypsinized, suspended in Hanks' Balanced Salt Solution (HBSS) buffer (Life technologies) containing blocking solution (Miltenyi Biotec) and incubated with A2B5-APC (clone 105HB29, reference 130-093-582) and CD133-PE (clone 293C3, reference 130-090-853) antibodies (Miltenyi Biotec) for 10 minutes. Cells were then fixed with 10% paraformaldehyde (Sigma-Aldrich) for 20 minutes and analyzed using flow cytometry (FACS Calibur™ BD Biosciences). A total of 100′000 events were counted for each sample and data were recorded with the CellQuest Pro Software (BD Biosciences) and analyzed using FlowJo software (Tree Star Inc., San Carlos, Calif.) and the Dean-Jet-Fox model analysis.

GBM6 CSCs [7] = test: Self-renewal capacity determination (sphere formation); type: cell-based, human; conditions: 6 nM, 72 hours
Method: GBM6 cells were seeded in previously poly-DL-ornithine (Sigma-Aldrich) coated 6-well plates (150′000 cells/well). After 24 hours, cells were treated or not with BAL27862 for 72 hours. At the end of treatment, the supernatant was removed and cells were harvested, dissociated into single cells and plated in 96-well plates (1-5 cells/well). Eight days later, the spheres were counted under an inverted light microscope (Leica DMI 4000B) (Leica, Saint Jorioz, France). Three independent experiments were performed.

orthotopic GBM6 tumors [8] = test: Orthotopic GBM6 xenografts, tumor volume by three-dimensional brain reconstruction; type: in vivo, mouse; conditions: 25 mg/kg i.v. days 30/33/36, day 45
Method: (§3) Approximately 100′000 cells of GBM6 GFP sh0 or shEB1 cells were stereotactically injected into the subventricular zone (0.5 mm anterior to bregma, −1 mm lateral, and −2.1 mm deep to the cortex surface) of 6-week-old athymic Nude mice. Grafted mice were intravenously treated with 25 mg/kg BAL101553 (three times at 30, 33 and 36 days after glioma implantation) or with vehicle (control). Forty five days after implantation, three animals of each group were sacrificed for analysis of tumor volumes (by three-dimensional brain reconstructions) or for FACS analysis.
For analysis of tumor volumes, mice were anesthetized and perfused with 4% paraformaldehyde. Brains were removed and fixed in 4% paraformaldehyde for 2 days at 4° C., then rinsed and conserved in PBS until dissection. Brains were entirely cut into 50-100-μm-thick sections using Vibratome (Leica) following the sagittal axis. A total of 60 sections per brain were obtained. Mapping and analysis of GFP-injected cells and tumors were performed by using a Leica DMLB fluorescence microscope, a Leica DC300F digital camera, and the Leica FW4000 imaging software (Leica). Three-dimensional brain reconstructions were obtained using FreeD software (Andrey P., Free-D: an integrated environment for three-dimensional reconstruction from serial sections. Journal of Neuroscience Methods. 2005; 145(1-2):233-244). […]

orthotopic GBM6 tumors [9] = test: FACS analysis of A2B5 brain tumor cancer stem cells from orthotopic GBM6 tumors; type: in vivo, mouse; conditions: 25 mg/kg i.v. days 30/33/36, day 45
Method: as §3
After anesthesia, animals were perfused with PBS, and brains were removed and stored in HBSS buffer containing 2% FBS. Cells were dissociated in a cocktail of enzymes (DNase I (Roche, Rotkreuz, Switzerland), Collagenase D (Roche) and V (Sigma-Aldrich) with GentleMACS dissociator (Miltenyi Biotech)). The reaction was stopped by adding DMEM containing 10% FCS. The suspension was filtered and cells were resuspended in 40% Percoll (Sigma-Aldrich). After centrifugation, myelin was removed and cells were resuspended in HBSS buffer containing 2% FCS. Cells were incubated in HBSS containing 2% FCS with A2B5-APC and CD133-PE antibodies for 10 minutes. Cells were then fixed with 10% paraformaldehyde for 20 minutes and analyzed using flow cytometry. A total of 100′000 events were counted for each sample and data were recorded with the CellQuest Pro Software and analyzed using FlowJo software choosing the Dean-Jet-Fox model analysis.

[10] = GBM6 GFP sh0 (normal EB1 levels)
[11] = GBM6 GFP shEB1 (EB1 downregulated)

N#CCCNc1nonc1-c1nc2ccccc2n1CC(=O)c1ccc(N)cc1 [BAL27862, 3-(4-{1-[2-(4-amino-phenyl)-2-oxo-ethyl]-1H-benzoimidazol-2-yl}-furazan-3-ylamino)-propionitrile]
pEC50 (GBM6 CSCs [1]; Homo sapiens, GBM6, 72 h): ~7.70 | pEC50 (GBM6 CSCs [1]): 7.68 | pEC50 (GBM9 CSCs [2]; Homo sapiens, 72 h): ~7.70 | pEC50 (GBM9 CSCs [2]): 7.66 | inhibition of cell migration (GBM6 CSCs [3]; EB1 downregulated GBM6 cells (shEB1), 6 nM): inhibitory effect of BAL27862 treatment was drastically reduced | inhibition of cell migration (GBM6 CSCs [3]; GBM6, cytotoxic 20 nM, 5 hours transmigration): drastically inhibited the migration | inhibition of cell migration (GBM6 CSCs [3]; GBM6, non-cytotoxic 6 nM, 5 hours transmigration): statistically significant inhibition of cell migration | inhibition of cell migration (GBM6 CSCs [3]; control EB1-expressing GBM6 cells, 6 nM): statistically significant inhibition of cell migration | inhibition of cell migration (GBM9 CSCs [4]; GBM9, cytotoxic 20 nM): drastically inhibited the migration | inhibition of cell migration (GBM9 CSCs [4]; GBM9, non-cytotoxic 6 nM): did not respond | clonogenic capacity (colony formation) (GBM6 CSCs [5]; [10]): impaired the clonogenic capacity of GBM6 CSCs at the sub-toxic doses of 6 and 10 nM in a statistically significant manner | clonogenic capacity (colony formation) (GBM6 CSCs [5]; GBM6 GFP shEB1 (EB1 levels downregulated)): only in the EB1-expressing cells | A2B5 positive cell number (GBM6 CSCs [6]; GBM6 GFP sh0 (EB1 expressed)): significant inhibition | A2B5 positive cell number (GBM6 CSCs [6]; [11]): less sensitive | sphere formation (GBM6 CSCs [7]; [10]): interferes statistically significantly with sphere formation | sphere formation (GBM6 CSCs [7]; [11]): suppresses the inhibitory activity of BAL27862 | sphere formation (GBM6 CSCs [7]; GBM6 wild-type): interferes statistically significantly with sphere formation

N#CCCNc1nonc1-c1nc2ccccc2n1CC(=O)c1ccc(NC(=O)[C@@H](N)CCCCN)cc1 [BAL101553]
tumor mass (size) and tumor spreading versus vehicle (orthotopic GBM6 tumors [8]; GBM6 GFP sh0 (EB1-expressing) tumors): clear reduction of the tumor mass (size) and in tumor spreading | tumor mass (size) and tumor spreading versus vehicle (orthotopic GBM6 tumors [8]; GBM6 GFP shEB1 (EB1 negative) tumors): minimal | proportion of A2B5 positive GBM6 cells (orthotopic GBM6 tumors [9]; EB1 downregulated GBM6 tumors): ~80% | proportion of A2B5 negative GBM6 cells (orthotopic GBM6 tumors [9]; EB1 expressing GBM6 tumors): 80% | proportion of A2B5 positive GBM6 cells (orthotopic GBM6 tumors [9]; EB1 expressing GBM6 tumors): 20%
